Target: T1, TEAD2 (Homo sapiens, UniProt Q15562)
T1 construct: The cDNA encoding human TEAD2 (residues 217-447, TEAD2^217-447) was cloned into a pET29 vector; made in house; host or cells: E. coli BL21(DE3)-T1R
Assay: In vitro palmitoylation assay to measure potency of TEAD palmitoylation inhibitors (Example 11)
Assay type: biochemical
Settings: compound at 5 μM, 3 μM alkyne palmitoyl-CoA, normalized to DMSO control
Protocol: Recombinant His6TEAD2 (500 ng) protein was incubated with DMSO control or TEAD inhibitors (MGH-CP1 and its analogues) at 5 μM for 30 min. 3 μM of alkyne palmitoyl-CoA (Cayman Chemical) were then added into the reaction mixture and incubated for 2 h in 50 mM MES, pH 6.4. The reaction was quenched with 1% SDS followed by Click reaction with biotin-azide. Samples were analyzed by SDS-PAGE and streptavidin HRP. Bands intensity obtained from streptavidin blot were quantified using Image J (NIH), and normalized to DMSO control. The percentage of inhibition was determined by comparing to DMSO control and non-palmitoylated TEAD2. To determine the dose-dependency of the inhibitors, various concentrations of the compounds (10 nM to 20 μM) were incubated with TEAD2 protein for 30 min, and then 3 μM of alkyne palmitoyl-CoA (Cayman Chemical) were then added into the reaction mixture and incubated for 2 h in 50 mM MES, pH 6.4. The reaction was then quenched and analyzed similarly as descried above. The level of palmitoylation was then determined by the streptavidin blot, and plotted by Prism to determine the IC50 values.
Compounds (4) to (53) were tested for activity in inhibiting TEAD palmitoylation in the assay of Example 11. The data for the compounds provided in Table 2 as a percentage of inhibition of TEAD2 palmitoylation by the compound at a concentration of 5 μM.

T1 sequence (Q15562 217-447): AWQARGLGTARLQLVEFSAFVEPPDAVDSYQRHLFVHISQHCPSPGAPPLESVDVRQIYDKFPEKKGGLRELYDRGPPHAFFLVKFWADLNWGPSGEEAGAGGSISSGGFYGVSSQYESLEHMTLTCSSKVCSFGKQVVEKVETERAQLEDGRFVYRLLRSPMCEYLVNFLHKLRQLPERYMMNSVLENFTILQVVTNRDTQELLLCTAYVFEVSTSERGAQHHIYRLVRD

| Structure (SMILES) | inhibition at 5 µM [%] |
| --- | --- |
| Cn1cnnc1SCC(=O)Nc1ccc(C23CC4CC(CC(C4)C2)C3)cc1Br | 12 |
| CCOc1ccc2nc(SCCC(=O)Nc3ccc(C45CC6CC(CC(C6)C4)C5)cc3)sc2c1 | 47 |
| O=C(CSc1nnc[nH]1)Nc1ccc(-c2cc3ccccc3c3ccccc23)cc1 | 56 |
| O=C(Nc1ccc(C23CC4CC(CC(C4)C2)C3)cc1)c1cccnc1Nc1cccc(C(F)(F)F)c1 | < 10 |
| O=C(CSc1nnc[nH]1)Oc1ccc(C23CC4CC(CC(C4)C2)C3)cc1 | 39 |
| CCn1c(CN2CCOCC2)nnc1SCC(=O)Nc1ccc(C23CC4CC(CC(C4)C2)C3)cc1 | 10 |
| O=C(CNc1nnc[nH]1)Nc1ccc(C23CC4CC(CC(C4)C2)C3)cc1 | 45 |
| Nc1nncn1CC(=O)Nc1ccc(C23CC4CC(CC(C4)C2)C3)cc1 [drawing 55] | 38 |
| O=C(CSc1nncs1)Nc1ccc(C23CC4CC(CC(C4)C2)C3)cc1 | 68 |
| Cc1ccc(-c2nnc(SCC(=O)Nc3ccc(C45CC6CC(CC(C6)C4)C5)cc3)o2)cc1 | 53 |
| Cn1cnnc1SCC(=O)Nc1ccc(C23CC4CC(CC(C4)C2)C3)cc1 | 10 |
| COc1ccc(-c2nnc(SCC(=O)Nc3ccc(C45CC6CC(CC(C6)C4)C5)cc3)[nH]2)cc1 | 80 |
| CCOc1ccc2nc(SCC(=O)Nc3ccc(C45CC6CC(CC(C6)C4)C5)cc3)sc2c1 | 40 |
| O=C(CCSc1nnc(-c2ccc(Cl)cc2Cl)o1)Nc1cccc(C23CC4CC(CC(C4)C2)C3)c1 | 63 |
| O=C(CCSc1nnc[nH]1)Nc1ccc(C23CC4CC(CC(C4)C2)C3)cc1 | 100 |
| O=C(CCCSc1nnc[nH]1)Nc1ccc(C23CC4CC(CC(C4)C2)C3)cc1 | 100 |
| Cc1ccc(-c2nnc(SCCC(=O)Nc3cccc(C45CC6CC(CC(C6)C4)C5)c3)o2)cc1 | 80 |
| Cc1ccc(-c2nnc(SCCCC(=O)Nc3ccc(C45CC6CC(CC(C6)C4)C5)cc3)o2)cc1 | 58 |
| Cc1nnc(SCCC(=O)Nc2cccc(C34CC5CC(CC(C5)C3)C4)c2)o1 | 80 |
| O=C(CSc1nnc(-c2ccc(Cl)cc2Cl)o1)Oc1ccc(C23CC4CC(CC(C4)C2)C3)cc1 | 56 |
| O=C(CS(=O)(=O)c1nnc[nH]1)Nc1ccc(C23CC4CC(CC(C4)C2)C3)cc1 | < 10 |
| Cn1c(SCC(=O)Nc2ccc(C34CC5CC(CC(C5)C3)C4)cc2)nnc1-c1ccccc1 | 70 |
| Cc1nnc(SCC(=O)Nc2ccc(C34CC5CC(CC(C5)C3)C4)cc2)o1 | 76 |
| CCn1c(SCC(=O)Nc2ccc(C34CC5CC(CC(C5)C3)C4)cc2)nnc1-c1ccccc1O | 10 |
| O=C(CSc1nnc[nH]1)Nc1ccc(C23CC4CC(CC(C4)C2)C3)cc1Br | 87 |

Other lines, results leading:

| inhibition at 5 µM [%] | Structure (SMILES) |
| --- | --- |
| 24 | CC(C)c1ccc(NC(=O)CSc2nnc[nH]2)cc1 |
| 100 | Cc1cccc(C)c1-c1ccc(NC(=O)CSc2nnc[nH]2)cc1 [drawing 42] |
| 90 | O=C(CSc1nnc[nH]1)Nc1ccc(-c2cc(-c3ccccc3)cc(C(F)(F)F)c2)cc1 |
| 89 | O=C(CSc1nnc[nH]1)Nc1ccc(-c2ccccc2)cc1 |
| 90 | O=C(CSc1nnc[nH]1)Nc1ccc(-c2ccncc2)cc1 |
| 100 | O=C(CSc1nnc[nH]1)Nc1ccc(-c2cccc(-c3ccncc3)c2)cc1 |
| 30 | CC(C)(C)c1ccc(NC(=O)CSc2nnc[nH]2)cc1 |
| 68 | O=C(CSc1nnc[nH]1)Nc1ccc(-c2cc(-c3ccccc3)cc(-c3ccccc3)c2)cc1 |
| 23 | Cn1cnnc1SCC(=O)Nc1ccc(-c2ccccc2)cc1 |
| 88 | O=C(CSc1nnc[nH]1)Nc1ccc(-c2cccc(C(F)(F)F)c2)cc1 |
| 95 | Cc1cc(-c2ccc(NC(=O)CSc3nnc[nH]3)cc2)cc(C)n1 |
| 95 | O=C(CSc1nnc[nH]1)Nc1ccc(-c2cc(C(F)(F)F)cc(C(F)(F)F)c2)cc1 |
| 78 | O=C(CSc1nnc[nH]1)Nc1ccc(-c2cc(-c3ccccc3)nc(-c3ccccc3)c2)cc1 |
| 100 | O=C(CSc1nnc[nH]1)Nc1ccc(-c2cccc(-c3cccnc3)c2)cc1 |
| 97 | CCCc1ccc(-c2ccc(NC(=O)CSc3nnc[nH]3)cc2)cc1 |
| 100 | Cc1cc(C)cc(-c2ccc(NC(=O)CSc3nnc[nH]3)cc2)c1 |
| 90 | O=C(CSc1nnc[nH]1)Nc1ccc(-c2cc(-c3ccncc3)cc(-c3ccncc3)c2)cc1 |
| 90 | O=C(CSc1nnc[nH]1)Nc1ccc(-c2cccc3ccccc23)cc1 |
| 70 | O=C(CSc1nnc[nH]1)Nc1ccc(-c2cccc(-c3ccccc3)c2)cc1 |
| 89 | O=C(CSc1nnc[nH]1)Nc1ccc(-c2ccccc2)cc1Br |
| 85 | O=C(CSc1nnc[nH]1)Nc1ccc(C23CC4CC(CC(C4)C2)C3)cc1 [drawing 23] |
| 100 | CC(C)(C)c1ccc(-c2ccc(NC(=O)CSc3nnc[nH]3)cc2)cc1 |
| 93 | O=C(CSc1nnc[nH]1)Nc1ccc(-c2ccc(C3CCCCC3)cc2)cc1 |
| 95 | O=C(CSc1nnc[nH]1)Nc1ccc(-c2cc(-c3cccnc3)cc(-c3cccnc3)c2)cc1 |
| < 10 | O=C(CSc1nnc[nH]1)N(c1cccc(C(F)(F)F)c1)c1ccccn1 |

Test system: HuH7 cells
Assay: Colony formation, HuH7
Assay type: cell-based, human
Settings: tested at 0-20 μM (FIG. 29)
Protocol: Assays were performed to measure inhibition of cancer cell proliferation in HuH7 cells by compounds (4), (22) and (36), which were each tested at 0-20 μM.

| Structure (SMILES) | inhibition of cancer cell proliferation / colony formation in HuH7 cells |
| --- | --- |
| Cc1cccc(C)c1-c1ccc(NC(=O)CSc2nnc[nH]2)cc1 [Compound 23] | effective |
| Nc1nncn1CC(=O)Nc1ccc(C23CC4CC(CC(C4)C2)C3)cc1 [Compound 36] | less effective |

Source: patent publication US10696642B2, “TEAD transcription factor autopalmitoylation inhibitors” (The General Hospital Corporation, priority 2015, dated 2020)
